In experiment [1] the target is T1, Myo1C^35-ΔTH1 (acto·Myo1C^35-ΔTH1) (Homo sapiens, UniProt O00159).
T1 construct: 35-residue N-terminal extension + motor domain + 3 IQ motifs + post-IQ; C-terminal 176-residue TH1 domain replaced by C-terminal octa-histidine tag; coproduced with human calmodulin in baculovirus/Sf9; with Calmodulin-1; Actin, alpha skeletal muscle (Gallus gallus, chicken pectoralis major muscle F-actin, pyrene-labeled)
The experiment in a line: stopped-flow, ADP inhibition of ATP-induced dissociation from pyrene-labeled F-actin, slow-phase amplitude fraction. The class given is binding. From the text:
stopped-flow, ADP inhibition of ATP-induced dissociation from pyrene-labeled F-actin, slow-phase amplitude fraction on Myo1C^35-ΔTH1 (acto·Myo1C^35-ΔTH1)

Experiment [2] has as its target T1, Myo1C^35-ΔTH1 (acto·Myo1C^35-ΔTH1). The experiment in a line: stopped-flow, ATP-induced dissociation from pyrene-labeled F-actin, fast phase. The format is binding. From the text: stopped-flow, ATP-induced dissociation from pyrene-labeled F-actin, fast phase on Myo1C^35-ΔTH1 (acto·Myo1C^35-ΔTH1)

T1 sequence (O00159 1-887, stated change not applied): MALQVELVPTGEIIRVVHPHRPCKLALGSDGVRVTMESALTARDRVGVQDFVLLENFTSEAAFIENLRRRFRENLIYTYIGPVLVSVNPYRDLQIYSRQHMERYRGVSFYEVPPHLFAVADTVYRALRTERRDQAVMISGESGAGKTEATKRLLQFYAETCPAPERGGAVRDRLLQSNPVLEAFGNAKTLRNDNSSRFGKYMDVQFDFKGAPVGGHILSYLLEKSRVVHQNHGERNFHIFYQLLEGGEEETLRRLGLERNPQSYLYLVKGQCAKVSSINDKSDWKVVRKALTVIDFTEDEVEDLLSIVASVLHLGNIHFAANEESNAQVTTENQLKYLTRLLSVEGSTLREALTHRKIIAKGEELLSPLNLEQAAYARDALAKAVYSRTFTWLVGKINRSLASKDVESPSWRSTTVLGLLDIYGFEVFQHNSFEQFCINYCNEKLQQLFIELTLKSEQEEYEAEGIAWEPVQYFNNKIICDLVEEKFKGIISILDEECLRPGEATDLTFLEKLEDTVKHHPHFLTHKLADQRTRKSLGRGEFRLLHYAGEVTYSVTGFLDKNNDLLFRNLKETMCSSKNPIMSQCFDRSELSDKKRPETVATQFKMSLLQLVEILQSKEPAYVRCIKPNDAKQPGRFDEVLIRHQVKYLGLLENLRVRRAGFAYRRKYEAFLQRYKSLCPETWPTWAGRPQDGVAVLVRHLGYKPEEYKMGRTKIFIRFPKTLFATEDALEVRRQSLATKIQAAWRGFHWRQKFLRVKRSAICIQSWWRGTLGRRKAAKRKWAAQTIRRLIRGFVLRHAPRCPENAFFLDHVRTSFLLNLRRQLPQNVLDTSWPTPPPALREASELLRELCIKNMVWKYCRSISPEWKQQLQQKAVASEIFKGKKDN

Usually Kd stands for the equilibrium constant for the complex coming apart. The molecule `Nc1ncnc2c1ncn2[C@@H]1O[C@H](COP(=O)(O)OP(=O)(O)O)[C@@H](O)[C@H]1O` [ADP] registered a Kd in experiment [1] of 0.23 ± 0.03 µM. In experiment [2], `Nc1ncnc2c1ncn2[C@@H]1O[C@H](COP(=O)(O)OP(=O)(O)OP(=O)(O)O)[C@@H](O)[C@H]1O` [ATP] displayed a Kd of 405 ± 79 µM.

The values are drawn from article PMC7948490, “Mechanochemical properties of human myosin-1C are modulated by isoform-specific differences in the N-terminal extension” (The Journal of Biological Chemistry, 2020).
